Consider one compound from patent publication US10947188B2, “Small molecule ferroptosis inducers” (THE TRUSTEES OF COLUMBIA UNIVERSITY IN THE CITY OF NEW YORK, priority 2016, dated 2021).

This test concerns BJeLR. The test is described as follows: Modulatory profiling: Alamar Blue viability, lethal compound cotreated with death modulator (EC50, AUC). For AUC, modulator BJ.3MA: reference of the scale not given here. For AUC, modulator BJ.ALLN: reference of the scale not given here. For AUC, modulator BJ.Boc D: reference of the scale not given here. For AUC, modulator BJ.CHX: reference of the scale not given here. For AUC, modulator BJ.Co2+: reference of the scale not given here. For AUC, modulator BJ.DPQ: reference of the scale not given here. For AUC, modulator BJ.Gd3+: reference of the scale not given here. For AUC, modulator BJ.LNAME: reference of the scale not given here. For AUC, modulator BJ.NAD+: reference of the scale not given here. For AUC, modulator BJ.NMMA: reference of the scale not given here. For AUC, modulator BJ.Nec-1: reference of the scale not given here. For AUC, modulator BJ.Pepstatin: reference of the scale not given here. For AUC, modulator BJ.TLCK: reference of the scale not given here. The class given is cell-based, human. Further details: AUC, modulator BJ.Gd3+ / AUC, modulator BJ.LNAME / AUC, modulator BJ.Lmin / AUC, modulator BJ.3MA / AUC, modulator BJ.ALLN / AUC, modulator BJ.Boc D / AUC, modulator BJ.CHX / AUC, modulator BJ.Co2+ / AUC, modulator BJ.Nec-1 / AUC, modulator BJ.Pepstatin / AUC, modulator BJ.TLCK / AUC, modulator BJ.atoc / AUC, modulator BJ.trolox / AUC, modulator BJ.zVAD: unit not given beside the values. Conditions: BJeLR cells, modulatory profile value (AUC). For orientation: Resazurin is reduced to fluorescent resorufin, in cell work by metabolically active cells.

On to `C[S+]([O-])c1nc(-c2ccc(Br)cc2)cc(-c2ccccc2)c1C#N` (stereo not drawn) [CIL17], for which the “AUC, modulator BJ.3MA” value (lethal compound cotreated with modulator 3MA) worked out at 0.07927. Moreover, the “AUC, modulator BJ.ALLN” value (lethal compound cotreated with modulator ALLN) was −0.07478. In addition, the “AUC, modulator BJ.Boc D” value (lethal compound cotreated with modulator Boc D) is listed as −0.03116. Besides, where the note is “lethal compound cotreated with modulator CHX”, the “AUC, modulator BJ.CHX” value is given as −0.0462. Under “lethal compound cotreated with modulator Co2+”, the “AUC, modulator BJ.Co2+” value is −0.04764. Also, for the setting “lethal compound cotreated with modulator DPQ”, the “AUC, modulator BJ.DPQ” value is listed as 0.004679. Under “lethal compound cotreated with modulator Gd3+”, the “AUC, modulator BJ.Gd3+” value is recorded as −0.04. Besides, for the setting “lethal compound cotreated with modulator LNAME”, the “AUC, modulator BJ.LNAME” value was −0.008054. Also, the “AUC, modulator BJ.Lmin/NAD+” value (lethal compound cotreated with modulator Lmin/NAD+) is reported as −0.03209. The “AUC, modulator BJ.Lmin” value (lethal compound cotreated with modulator Lmin) is recorded as −0.02464. The “AUC, modulator BJ.NAD+” value (lethal compound cotreated with modulator NAD+) is recorded as −0.01632. Also, for the setting “lethal compound cotreated with modulator NMMA”, the “AUC, modulator BJ.NMMA” value is listed as −0.01688. Moreover, the “AUC, modulator BJ.Nec-1” value (lethal compound cotreated with modulator Nec-1) turned out to be 0.02959. In addition, the “AUC, modulator BJ.Pepstatin” value (lethal compound cotreated with modulator Pepstatin) was 0.03912. Also, under “lethal compound cotreated with modulator TLCK”, the “AUC, modulator BJ.TLCK” value is reported as −0.07864. Moreover, the “AUC, modulator BJ.atoc” value (lethal compound cotreated with modulator atoc) is 0.006451. Where the note is “lethal compound cotreated with modulator trolox”, the “AUC, modulator BJ.trolox” value is −0.001174. The “AUC, modulator BJ.zVAD” value (lethal compound cotreated with modulator zVAD) was −0.02313.
